Where two headings read alike, the source gives them in different places.

The test system of experiment [1] is sebaceous glands in ears of the male Syrian hamster. The following applies: cited from earlier work.
Experiment [2] concerns human sebocytes (sebaceous cells). Put plainly: inhibition of human sebocyte proliferation in vitro. In kind it is cell-based. The following applies: for IC50: read-out: ED50 (amount of compound necessary to inhibit the proliferation of the sebaceous cells by 50% as compared to a control). The protocol:
Sebaceous cells were isolated from adult human sebaceous glands as in J. Invest. Dermatol. 96:341-348 (1991) and cultured on a layer of growth-arrested 3T3 mouse fibroblasts.
The cells were cultured in Iscove's medium containing 10% fetal calf serum and 4 μg/ml dexamethasone.
Cells were plated in medium without 1α-fluoro-25-hydroxy-16-ene-23-yne-cholecalciferol. 24-48 hours after the initial plating, the cultures were given fresh medium containing the compound of the invention. Every 48 hours, the cultures were given fresh medium containing the compound of the invention. On the day of harvesting, the cultures were rinsed with a 0.03% EDTA in PBS, to remove only the 3T3 fibroblasts. The remaining sebocyyte colonies were incubated in 0.05% trypsin/0.03% EDTA to create a single cell suspension of sebocytes. The cells were diluted, mixed vigorously to maintain a single cell suspension, and counted in a hemocytometer.
The compounds tested were handled in the following manner. Stock solutions were made up as 10^-2 M solutions in degassed 100% ethanol and stored at -20° C. in the dark. Solutions were never used after storage of more than one month. During experimental use the solutions, which were aliquoted, were thawed once and used by diluting directly into complete medium to the appropriate concentration, at 10^-6, 10^-7, 10^-8 M and 10^-9. The compounds tested were
The results are summarized in table 1 as the amount of compound necessary to inhibit the proliferation of the sebaceous cells by 50% as compared to a control (ED50). The control was a culture treated with diluent only.

Experiment [3] deals with hamster ear sebaceous gland. The experiment in a line: hamster ear sebaceous gland model, oral study. The class given is in vivo, male Golden Syrian hamsters. To be noted: 4 weeks. The protocol:
The purpose of the test was to evaluate the effect of the inventive compound on the sebaceous glands of the hamster ear after oral administration of the compound. 200 μl of the compound of the invention dissolved in Tween 20/water/ethanol […] administered daily (5 days per week) by garage to male Golden Syrian hamsters. The animals were sacrificed at 4 weeks and the ears were processed for histological evaluation. One ear was fixed with 10% buffered formalin, processed for paraffin embedding, sectioned, and stained with hematoxyline and eosin (H&E). The area of the sebaceous glands was measured on histologically prepared cross-sections of the ear by image analysis using a Leitz TAS Plus system. Data is given as the average areas of 48 sebaceous glands per dose.

The test system of experiment [4] is hamster ear sebaceous gland. Put plainly: hamster ear sebaceous gland model, topical study. In kind it is in vivo. To be noted: 4 weeks, vs control. The procedure: The compound was evaluated for topical anti-acne activity in the hamster ear sebaceous gland model. For these studies, the compound was dissolved in acetone. Fifty (50) μl of the drug-containing solution was applied daily (5 days per week) to the dorsal side of the right ear of the hamster. Control hamsters received 50 μl of acetone. The animals were sacrificed after 4 weeks. The ears were removed and processed for histological evaluation. The ventral surface was separated from the rest of the ear. A 2 mm punch was removed 5 mm from the tip of the ear and stained in 0.1% Sudan Black B dissolved in 100% propylene glycol overnight. After destaining, the areas of the sebaceous glands were determined from the cross sections by image analysis using a Donsato Image Analysis System. The data was expressed as a percentage change from control animals for 80-120 sebaceous glands per dose.

Regarding `C=C1/C(=C\C=C2/CCC[C@]3(C)[C@@H]([C@H](C)CCCC(C)(C)O)CC[C@@H]23)C[C@@H](O)C[C@@H]1O` [1,25-dihydroxycholecalciferol, reference compound], in experiment [1], the “size of sebaceous glands in ears (result in words)” value is “reducing the size of sebaceous glands in ears of the male Syrian hamster”. Also, the IC50 in experiment [2] (Homo sapiens) came to 0.05 µM.
For the compound `C=C1/C(=C\C=C2/CCC[C@]3(C)C([C@H](C)CC#CC(C)(C)O)=CC[C@@H]23)C[C@@H](O)C[C@@H]1F` [1α-fluoro-25-hydroxy-16-ene-23-yne-cholecalciferol], the “% Change in Hamster Ear Sebaceous Gland Size Cross Section Analysis” value was -28% in experiment [3] (0.05 μg/kg), -28% in experiment [3] (0.5 μg/kg), -34% in experiment [3] (5.0 μg/kg) and -35% in experiment [3] (50.0 μg/kg). Also, the “Change in Hamster Ear Sebaceous Gland Size Cross Section Analysis” value in experiment [4] (0.001 μg/animal, ns = not statistically significant from controls) is recorded as -3%; in experiment [4] (0.01 μg/animal, ns = not statistically significant from controls) it was -18%; in experiment [4] (0.1 μg/animal, ns = not statistically significant from controls), -28%; in experiment [4] (1.0 μg/animal, not marked ns) it was -40%. Also, the IC50 in experiment [2] (human sebocytes in vitro, control treated with diluent only) stood at 0.001 µM. Further, the “human sebocyte proliferation in vitro (result in words)” value in experiment [2] (in vitro) is reported as “inhibits human sebocyte proliferation in vitro”.
